Test results taken from publication PMC7796184, “Phytochemical Characterization, In Vitro Anti-Inflammatory, Anti-Diabetic, and Cytotoxic Activities of the Edible Aromatic Plant; Pulicaria jaubertii” (Molecules, 2021).
In brackets after ≈: the same amount, converted by molar mass.

Legend:
red blood cells (RBCs) = experiment: Membrane stabilizing activity, hypotonic solution-induced hemolysis of RBCs; format: cell-based, rats; settings: Erythrocyte, 10 min; rat RBCs, hypotonic solution pH 7.4, 10 min; triplicate; read-out: Membrane stabilization IC50 (inhibition of RBCs hemolysis)
Method: The method was conducted according to the literature. Erythrocyte suspension was prepared by withdrawing blood samples from rats with heparinized syringes through cardiac puncture. Then, phosphate buffer was used to wash blood samples three times with centrifugation after each washing at 3000 rpm for 10 min. […] Control samples were prepared by similar manner without extracts or indomethacin. Afterward, previous mixtures were withstanding for 10 min in room condition and subjected to 10 min centrifugation at 3000 rpm.

U937 human monocytes = experiment: Histamine release assay (EIA kit) in PMA-treated U937 cells; format: cell-based; settings: U-937, 20 nM Phorbol Myristate Acetate, 1 h, triplicate, read-out: Histamine release inhibition IC50
Method: In accordance with literature, extracts or standard diclofenac (7.81–1000 μg/mL) were added to U937 cells seeded in a 96-well plate in a concentration of 50,000 in presence or absence of 20 nM Phorbol Myristate Acetate. After 1 h, the treated and untreated cell cultures supernatants were collected and centrifuged at 10,000 rpm for 5 min at 4 °C. Then the samples were evaluated for released histamine by a commercially available EIA kit (SPI-Bio, Montigny le Bretonneux, France).

[1] = test system: breast carcinoma (MCF-7) cell line; experiment: cells; settings: Homo sapiens, MCF7, read-out: Cytotoxicity IC50
Method: (§1) All cells were obtained from the American Type Culture Collection (ATCC, Rockville, MD, USA) and were cultured on RPMI 1640 medium supplemented with 10% inactivated fetal calf serum and 50 μg/mL gentamycin. The cells were maintained at 37 °C in a humidified atmosphere with 5% CO2 and were sub cultured two to three times a week. Cell viability percentage was calculated by the equation: Cell viability % = Ac/At × 100(5) where Ac = Absorbance obtained from of control cells, At = Absorbance obtained from treated cells.

[2] = test system: prostate carcinoma (PC-3) cell line; experiment: cells; settings: Homo sapiens, PC-3, read-out: Cytotoxicity IC50
Method: as §1

[3] = test system: hepatocarcinoma (HepG-2) cell line; experiment: cells; settings: Homo sapiens, HepG2, read-out: Cytotoxicity IC50
Method: as §1

Question: With `COc1ccc2c(c1)c(CC(=O)O)c(C)n2C(=O)c1ccc(Cl)cc1` [Indomethacin] as the compound, how does the IC50 (red blood cells (RBCs)) read?
Answer: The IC50 was 17 ± 0.72 µg/mL (≈ 47.6 µM).

Question: Which IC50 (U937 human monocytes) does the source give for `O=C(O)Cc1ccccc1Nc1c(Cl)cccc1Cl` [Diclofenac] here?
Answer: Its IC50 is 17.9 ± 1.6 µg/mL (≈ 60.6 µM).

Question: What does the source list for `CC[C@]1(O)C[C@@H]2CN(CCc3c([nH]c4ccccc34)[C@@](C(=O)OC)(c3cc4c(cc3OC)N(C)[C@H]3[C@@](O)(C(=O)OC)[C@H](OC(C)=O)[C@]5(CC)C=CCN6CC[C@]43[C@@H]65)C2)C1` [Vinblastine]?
Answer: IC50 [1]: 4.6 ± 0.18 µg/mL (≈ 5.67 µM); IC50 [2]: 5.5 ± 0.4 µg/mL (≈ 6.78 µM); IC50 [3]: 4.6 ± 0.17 µg/mL (≈ 5.67 µM)
